# Test results taken from patent US20250101470A1, “METHOD FOR IMPROVING THE YIELD OF ERINACINE A BY LIQUID FERMENTATION OF HERICIUM ERINACEUS” (Zhejiang University of Technology, priority 2023, published 2025).
# Values joined by “and” are separate entries in the source; they are usually repeats but may differ in a detail not shown here. Equal entries are not always repeated.
# Tested on: Hericium erinaceus strain ACCC50268
# Assay: Liquid fermentation of Hericium erinaceus with an inducer added; mycelium weighed, Erinacine A in methanol extract measured by HPLC
# Format: cell-based
# Conditions: for effect on Erinacine A yield (in words): 5 mg/L added on 5th day; for increase of Erinacine A content in the mycelium: 5 mg/L inducer versus no inducer (0.19±0.05 mg/g dry mycelium); for increase of Erinacine A yield: 5 mg/L inducer versus no inducer (4.48±0.96 mg/L)
# Experimental: The strain number of a Hericium erinaceus strain is ACCC50268; source: China Agricultural Culture Collection and Management Center.
# (S.1) A strain of Hericium erinaceus was subcultured for 3 generations to achieve strain activation. The subculture temperature is 25-28° C., and the optimal culture temperature in this example is 28° C., and the time is 14 days, so that the entire inclined plane can be grown to obtain a slope strain. The components of PDA inclined medium are: potato extract, 15-25 g of glucose, 10-15 g of agar powder, and the volume is set to 1 L with water. In this example, the optimal PDA inclined medium components are as follows: potato extract, 20 g of glucose, 15 g of agar powder, and the volume is determined to 1 L with water;
# (S.2) The slope strains obtained in step (S.1) were inoculated into the primary liquid seed medium for culture. One vial of bevel strains was inoculated into two vials of primary liquid seed medium. The components of liquid seed medium are: glucose 25-35 g, soybean meal powder 15-30 g, potassium dihydrogen phosphate 0.5-2 g, magnesium sulfate 0-1 g, and the balance is water. The culture conditions of liquid seed medium are: 1-10 days at 25-28° C. and 130-160 rpm in the dark. In this example, the optimal liquid seed medium components are as follows: glucose 30 g, soybean meal powder 20 g, potassium dihydrogen phosphate 1 g, magnesium sulfate 0.5 g, and the balance is water. The medium was fixed to 1 L with purified water, and the prepared liquid seed medium was loaded into a 500 mL Erlenmeyer flask with a liquid volume of 200 mL, and cultured at 27° C. and 140 rpm for 7 days in the dark, and the liquid seeds of Hericium erinaceus were obtained.
# (S.3) the liquid seeds obtained in step (S.2) are inoculated into the liquid fermentation medium for liquid fermentation culture, the ratio of the liquid seed inoculation volume of Hericium erinaceus to the volume of the liquid fermentation medium is 8-12.5% (i.e., the inoculation amount of Hericium erinaceus liquid seeds is 8-12.5%), and the optimal inoculation amount of Hericium erinaceus liquid seeds in this example is 10%. The components of liquid fermentation medium are: glucose 25-50 g, yeast powder 10-30 g, potassium dihydrogen phosphate 0.5-2 g, magnesium sulfate 0-1 g, and the balance is water. The culture conditions of liquid fermentation medium are: 1-10 days at 25-28° C. and 130-160 rpm in the dark. In this example, the optimal liquid fermentation medium components are as follows: 30 g of glucose, 30 g of yeast powder, 1 g of potassium dihydrogen phosphate, 0.5 g of magnesium sulfate, and the balance is water. The medium was fixed to 1 L with distilled water, and the prepared liquid seed medium was packed into a 500 mL Erlenmeyer flask with a liquid volume of 200 mL, and incubated at 27° C. and 140 rpm for 7 days in the dark. […]
# seeds of Hericium erinaceus obtained in step (S.2) into liquid fermentation medium for liquid fermentation, […] fermentation medium to a concentration of 5 mg/L. […] After the end of fermentation, the medium was filtered through 80 mesh gauze, washed with water three times, and then dried overnight at 60° C. with hot air to obtain Hericium erinaceus mycelium;
# (S.4) The Hericium erinaceus mycelium obtained in step (S.3) was crushed, and 1 g of Hericium erinaceus mycelium dry powder was added to 20 mL of 80% methanol, heated and ultrasonicated. The reaction conditions for ultrasonic extraction of Erinacine A are as follows: ultrasonic power is 200-350 W, heating reaction temperature is 50-70° C., and ultrasonic reaction time is 40-90 min. In this example, the reaction conditions for the optimal ultrasonic extraction of Erinacine A are as follows: ultrasonic extraction at 60° C. and ultrasonic power of 300 W for 60 min. The supernatant was centrifuged to obtain an alcohol extract containing Erinacine A. The alcohol extract was filtered through a 0.22 μm filter membrane and then analyzed in liquid phase. […]
# [1] = 5 mg/L, added on 4th day, 6 days induction fermentation
# [2] = 5 mg/L, added on 5th day, 3 days induction fermentation
# [3] = 5 mg/L, added on 5th day, 5 days induction fermentation
# [4] = 5 mg/L, added on 5th day, 8 days induction fermentation
# [5] = 5 mg/L, added on 6th day, 6 days induction fermentation
# [6] = 5 mg/L, added on 7th day, 6 days induction fermentation
# [7] = 5 mg/L, added on 8th day, 6 days induction fermentation
# [8] = 5 mg/L, added on third day, 6 days induction fermentation
# [9] = 10 mg/L, added on 5th day, 6 days induction fermentation
# [10] = 50 mg/L, added on 5th day, 6 days induction fermentation
# [11] = inducer 5 mg/L in liquid fermentation medium, added on 5th day, 6 days induction fermentation
# [12] = inducer 5 mg/L in liquid fermentation medium, added on 5th day, 6 days induction fermentation, listed as Example 1
# [13] = 1 mL of the substance (purity greater than 95%) added on 5th day, 6 days induction fermentation
# [14] = inducer 5 mg/L in liquid fermentation medium, added on 5th day, 6 days induction fermentation, listed as Example 2
# [15] = 1 mg/L, added on 5th day, 6 days induction fermentation
# [16] = 5 mg/L, added on 5th day, 1 day induction fermentation
# [17] = 5 mg/L, added on 5th day, 2 days induction fermentation
# [18] = 5 mg/L, added on 5th day, 4 days induction fermentation
# [19] = 20 mg/L, added on 5th day, 6 days induction fermentation
compound,measurement,setting,value
C[n+]1ccc(-c2cc[n+](C)cc2)cc1 [methyl viologen],effect on Erinacine A yield (in words),6 days induction fermentation,significantly increased the yield of Erinacine A
same,increase of Erinacine A content in the mycelium,,about 115.47 times
same,increase of Erinacine A yield,,about 92.60 times
same,Erinacine A content,[1],1.52 ± 0.30 mg/g dried mycelium
same,Erinacine A yield,[1],22.18 ± 3.84 mg/L
same,Mycelium yield,[1],2.00 ± 0.84 g/L
same,Erinacine A content,[2],2.29 ± 0.52 mg/g dried mycelium
same,Erinacine A yield,[2],40.30 ± 7.52 mg/L
same,Mycelium yield,[2],17.68 ± 0.50 g/L
same,Erinacine A content,[3],16.58 ± 0.43 mg/g dried mycelium
same,Erinacine A yield,[3],276.77 ± 4.72 mg/L
same,Mycelium yield,[3],5.45 ± 1.39 g/L
same,Erinacine A content,[4],8.97 ± 2.33 mg/g dried mycelium
same,Erinacine A yield,[4],179.50 ± 62.29 mg/L
same,Mycelium yield,[4],19.79 ± 0.76 g/L
same,Erinacine A content,[5],2.98 ± 1.16 mg/g dried mycelium
same,Erinacine A yield,[5],69.29 ± 30.01 mg/L
same,Mycelium yield,[5],23.05 ± 1.08 g/L
same,Erinacine A content,[6],2.68 ± 0.66 mg/g dried mycelium
same,Erinacine A yield,[6],61.60 ± 10.06 mg/L
same,Mycelium yield,[6],23.22 ± 1.93 g/L
same,Erinacine A content,[7],0.57 ± 0.12 mg/g dried mycelium
same,Erinacine A yield,[7],13.29 ± 2.55 mg/L
same,Mycelium yield,[7],23.28 ± 0.57 g/L
same,Erinacine A content,[8],0.05 ± 0.01 mg/g dried mycelium
same,Erinacine A yield,[8],0.41 ± 0.06 mg/L
same,Mycelium yield,[8],8.64 ± 1.54 g/L
same,Erinacine A content,[9],20.61 ± 3.21 mg/g dried mycelium
same,Erinacine A yield,[9],400.44 ± 69.30 mg/L
same,Mycelium yield,[9],7.40 ± 0.36 g/L
same,Erinacine A content,[10],0.21 ± 0.04 mg/g dried mycelium
same,Erinacine A yield,[10],3.71 ± 1.06 mg/L
same,Mycelium yield,[10],17.71 ± 1.29 g/L
same,Erinacine A content,[11],21.94±2.40 mg/g dried mycelium
same,Erinacine A yield,[11],414.84 ± 30.03 mg/L
same,Mycelium yield,[11],18.96 ± 0.69 g/L
same,Erinacine A content,[12],94.94 ± 2.40 mg/g dried mycelium
same,Erinacine A yield,[12],414.84 ± 30.03 mg/L and 418.84 ± 30.03 mg/L
same,effect on liquid fermentation growth of Hericium erinaceus (in words),methyl viologen solution added at different times,inhibitory effect on the liquid fermentation growth of Hericium erinaceus
CCCCCCCC/C=C\CCCCCCCC(=O)O [oleic acid],effect on synthesis of Erinacine A (in words),1 mL added on the 5th day of liquid fermentation,did not show obvious stimulating effects
same,Erinacine A content,[13],0.20 ± 0.10 mg/g dried mycelium
same,Erinacine A yield,[13],4.70 ± 2.16 mg/L
same,Mycelium yield,[13],23.72 ± 1.04 g/L
C=C(C)[C@H]1Cc2c(ccc3c2O[C@@H]2COc4cc(OC)c(OC)cc4[C@@H]2C3=O)O1 [rotenone],effect on Erinacine A yield (in words),6 days induction fermentation,positive effect on the increase of Erinacine A yield
same,increase of Erinacine A content in the mycelium,,about 2.52 times
same,increase of Erinacine A yield,,about 2.06 times
same,Erinacine A content,[11],0.67 mg/g dried mycelium and 0.67±0.04 mg/g dried mycelium
same,Erinacine A yield,[11],13.72 mg/L and 13.72 ± 0.24 mg/L
same,Mycelium yield,[11],8.50 ± 1.69 g/L
same,Erinacine A content,[14],0.67 ± 0.04 mg/g dried mycelium
same,Erinacine A yield,[14],13.72 ± 0.24 mg/L
methyl viologen,Erinacine A content,[15],0.63 ± 0.09 mg/g dried mycelium
same,Erinacine A yield,[15],13.93 ± 4.56 mg/L
same,Mycelium yield,[15],9.49 ± 2.94 g/L
same,Erinacine A content,[16],0.07 ± 0.01 mg/g dried mycelium
same,Mycelium yield,[16],20.16 ± 0.85 g/L
same,Erinacine A content,[17],0.68 ± 0.27 mg/g dried mycelium
same,Erinacine A yield,[17],12.53 ± 3.82 mg/L
same,Mycelium yield,[17],17.94 ± 1.68 g/L
same,Erinacine A content,[18],5.49 ± 1.60 mg/g dried mycelium
same,Erinacine A yield,[18],103.99 ± 18.67 mg/L
same,Erinacine A content,[19],1.50 ± 0.38 mg/g dried mycelium
same,Erinacine A yield,[19],29.47 ± 7.44 mg/L
same,Mycelium yield,[19],19.61 ± 0.48 g/L
